Laboratory results reported in PubChem BioAssay AID1963959 (Molecular Pharmacology Branch, DTP, NCI, 2024).

Tested on: T-47D spheroids with HUVEC/MSC, viability
Assay: Anticancer human tumor T-47D cell line growth inhibition [PI3K];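 note: spheroids exposed to agents for seven days before reading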;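 for viability, T/C: percent of DMSO vehicle control luminescence so 100% = untreated growth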
Conditions: for IC50: curve of first compound; for viability, T/C: stronger effect = lower value; active = viability on the fitted dose curve at most 10% of control; inactive = the rest
Excerpt: Combinatorial screen of targeted agents with the PI3K inhibitors inavolisib, alpelisib, duvelisib, and copanlisib in multi-cell type tumor spheroids
A high-throughput screen of multi-cell type tumor spheroids was designed to identify active combinations of targeted small molecules and PI3K pathway inhibitors. Complex spheroids include a stromal component modeled by human endothelial cells (HUVEC) and fibroblasts modeled by human mesenchymal stem cells (MSCs). The concentration ranges selected for each drug and investigational agent were based upon clinically achievable concentrations if the clinical Cmax of the agent was known.
Compounds. The drugs and investigational agents: inavolisib (NSC800729), alpelisib (NSC765974), duvelisib (NSC772469), copanlisib (NSC816437), ipatasertib (NSC767898), afuresertib (NSC778305), talazoparib (NSC767125), sapanisertib (NSC764658), selumetinib (NSC741078), tovorafenib (DAY101, NSC766906), vemurafenib (NSC761431), ravoxertinib (NSC781343), sotorasib (NSC818433), MRTX1133 (NSC 836407), abemaciclib (NSC 768073), palbociclib (NSC758247), venetoclax (NSC 766270), SY5609 (NSC837396), enzalutamide (NSC755605), and darolutamide (NSC825331), were obtained from the National Cancer Institute (NCI) Developmental Therapeutics Program Chemical Repository. The FDA-approved anticancer drug set is available from the NCI Developmental Therapeutics Program. […] The stock solutions were prepared in dimethyl sulfoxide (DMSO, Sigma-Aldrich, St. Louis, MO, cat. D2650) at 800-fold the tested concentration and stored at -70 degrees C prior to their use. All drugs and investigational agents were tested over a range starting from a high concentration at or near the clinical Cmax and decreasing in half-log increments. If the clinical Cmax for an agent had not been determined, the highest concentration tested was 10 microM.
Cell Culture. All cells were maintained in an incubator at 37 degrees C and 5% CO2 with 95% humidity. The PDC lines were cultured according to standard operating procedures established by the NCI PDMR (https://pdmr.cancer.gov/sops/default.htm). All PDCs were thawed and cultured in Matrigel-coated flasks prepared with a working solution of 1X Ham's F-12 nutrient mix, without supplementation (Invitrogen, Waltham, MA, cat. 11765054), 100 U/mL penicillin-streptomycin (Invitrogen, cat. 15140122), and 2.5% Matrigel (Corning Inc., Corning, NY, cat. 354248) for the first three passages. The 354836-022-R-J1-PDC, 475296-252-R-J1-PDC, and 997726-040-R-J2-PDC lines were cultured in 6A media, which includes advanced DMEM/F-12 (Thermo Fisher Scientific, cat. 12634028), 10 mM HEPES (Thermo Fisher Scientific, cat. 15630080), 1X GlutaMAX supplement (Thermo Fisher Scientific, cat. 35050061), 0.1 mg/mL primocin (InvivoGen, San Diego, CA, cat. ant-pm-2), 10% defined fetal bovine serum, heat inactivated (HyClone Laboratories Inc., Logan, UT, cat. SH30070.03HI), 50% L-WRN conditioned media (ATCC, cat. CRL-3276), 1.25 mM N-Acetyl-L-cysteine (Sigma-Aldrich, cat. A9165), 10 mM nicotinamide (Sigma-Aldrich, cat. N0636), 1X B-27 supplement (Thermo Fisher Scientific, cat. 17504044), 1X N-2 supplement (Thermo Fisher Scientific, cat. 17502048), and 10 microM Y-27632 dihydrochloride (Tocris Bioscience, Bristol, United Kingdom, cat. 1254). The 624824-186-R-J2-PDC line was cultured in 6C/Colon 1B media, which includes all 6A media components plus 50 ng/mL human EGF recombinant protein (Thermo Fisher Scientific, cat. PHG0311). […]

CCN1CCN(Cc2ccc(Nc3ncc(F)c(-c4cc(F)c5nc(C)n(C(C)C)c5c4)n3)nc2)CC1 + Cc1nc(NC(=O)N2CCCC2C(N)=O)sc1-c1ccnc(C(C)(C)C(F)(F)F)c1
inactive: viability, T/C (second compound 0.0316 µM, first compound 0.00316 µM) 111% | viability, T/C (second compound 0.0316 µM, first compound 0.01 µM) 87.8% | viability, T/C (second compound 0.0316 µM, first compound 0.0316 µM) 89% | viability, T/C (second compound 0.0316 µM, first compound 0.1 µM) 85% | viability, T/C (second compound 0.0316 µM, first compound 0.316 µM) 80.9% | viability, T/C (second compound 0.0316 µM, first compound 1 µM) 92.7% | viability, T/C (second compound 0.1 µM, first compound 0.00316 µM) 100% | viability, T/C (second compound 0.1 µM, first compound 0.01 µM) 73.7% | viability, T/C (second compound 0.1 µM, first compound 0.0316 µM) 82.1% | viability, T/C (second compound 0.1 µM, first compound 0.1 µM) 72.3% | viability, T/C (second compound 0.1 µM, first compound 0.316 µM) 80.7% | viability, T/C (second compound 0.1 µM, first compound 1 µM) 85.2% | viability, T/C (second compound 0.316 µM, first compound 0.00316 µM) 96% | viability, T/C (second compound 0.316 µM, first compound 0.01 µM) 73.4% | viability, T/C (second compound 0.316 µM, first compound 0.0316 µM) 70.2% | viability, T/C (second compound 0.316 µM, first compound 0.1 µM) 67% | viability, T/C (second compound 0.316 µM, first compound 0.316 µM) 64.4% | viability, T/C (second compound 0.316 µM, first compound 1 µM) 73.2% | viability, T/C (second compound 1 µM, first compound 0.00316 µM) 78.9% | viability, T/C (second compound 1 µM, first compound 0.01 µM) 64.5% | viability, T/C (second compound 1 µM, first compound 0.0316 µM) 55.9% | viability, T/C (second compound 1 µM, first compound 0.1 µM) 51.9% | viability, T/C (second compound 1 µM, first compound 0.316 µM) 58.9% | viability, T/C (second compound 1 µM, first compound 1 µM) 70.3% | viability, T/C (second compound 3.16 µM, first compound 0.00316 µM) 61.2% | viability, T/C (second compound 3.16 µM, first compound 0.01 µM) 49.2% | viability, T/C (second compound 3.16 µM, first compound 0.0316 µM) 44.2% | viability, T/C (second compound 3.16 µM, first compound 0.1 µM) 39.3% | viability, T/C (second compound 3.16 µM, first compound 0.316 µM) 47.1% | viability, T/C (second compound 3.16 µM, first compound 1 µM) 53.2% | viability, T/C (second compound 10 µM, first compound 0.00316 µM) 30.5% | viability, T/C (second compound 10 µM, first compound 0.01 µM) 26% | viability, T/C (second compound 10 µM, first compound 0.0316 µM) 24.5% | viability, T/C (second compound 10 µM, first compound 0.1 µM) 27.2% | viability, T/C (second compound 10 µM, first compound 0.316 µM) 33.1% | viability, T/C (second compound 10 µM, first compound 1 µM) 38.6%
< 3.16 nM: IC50 (second compound 10 µM)
8.56 nM: IC50 (second compound 3.16 µM)
> 1000 nM: IC50 (second compound 0.0316 µM) | IC50 (second compound 0.1 µM) | IC50 (second compound 0.316 µM) | IC50 (second compound 1 µM)
